Assay: Inhibition of ROCK1 in human THP1 cells assessed as inhibition of MCP1-induced cell migration

Compound	IC50
c1ccc2c(c1)CC(Oc1nc(Nc3ccncc3)nc(N3CCNCC3)n1)C2 [4-(2,3-dihydro-1H-inden-2-yloxy)-6-(piperazin-1-yl)-N-(pyridin-4-yl)-1,3,5-triazin-2-amine]	57 nM
C[C@@H]1CN(c2nc(Nc3ccncc3)nc(NC3Cc4ccccc4C3)n2)CCN1 [(R)-N2-(2,3-dihydro-1H-inden-2-yl)-6-(3-methylpiperazin-1-yl)-N4-(pyridin-4-yl)-1,3,5-triazine-2,4-diamine]	26 nM
c1ccc2c(c1)CC(Nc1cc(Nc3ccncc3)nc(N3CCNCC3)n1)C2 [N4-(2,3-dihydro-1H-inden-2-yl)-2-(piperazin-1-yl)-N6-(pyridin-4-yl)pyrimidine-4,6-diamine]	12 nM
c1ccc2c(c1)CC(Nc1cc(N3CCNCC3)nc(Nc3ccncc3)n1)C2 [N4-(2,3-dihydro-1H-inden-2-yl)-6-(piperazin-1-yl)-N2-(pyridin-4-yl)pyrimidine-2,4-diamine]	154 nM

Source: BindingDB's records for doi:10.1016/j.bmcl.2009.09.046 (Ligand Pharmaceuticals, 2009)
